Measured values published in patent US9340590B2 (priority 2011, dated 2016).
pIC50: −log10 of the molar value. Read-outs that look alike come from different tables or passages of the source. Positions of bridges follow the written chain, without caps; N, C: chain ends. Non-standard residues stand in square brackets, D forms with d. Residues, ends and D or L forms follow the SMILES beside them. Cit = NC(=O)NCCC[C@H](N)C(=O)O; Nva = CCC[C@H](N)C(=O)O

What was measured:
hNav1.7 = hNav1.7 (Homo sapiens, UniProt Q15858); experiment: cell-based
Chain of hNav1.7 (Q15858 whole entry, looked up): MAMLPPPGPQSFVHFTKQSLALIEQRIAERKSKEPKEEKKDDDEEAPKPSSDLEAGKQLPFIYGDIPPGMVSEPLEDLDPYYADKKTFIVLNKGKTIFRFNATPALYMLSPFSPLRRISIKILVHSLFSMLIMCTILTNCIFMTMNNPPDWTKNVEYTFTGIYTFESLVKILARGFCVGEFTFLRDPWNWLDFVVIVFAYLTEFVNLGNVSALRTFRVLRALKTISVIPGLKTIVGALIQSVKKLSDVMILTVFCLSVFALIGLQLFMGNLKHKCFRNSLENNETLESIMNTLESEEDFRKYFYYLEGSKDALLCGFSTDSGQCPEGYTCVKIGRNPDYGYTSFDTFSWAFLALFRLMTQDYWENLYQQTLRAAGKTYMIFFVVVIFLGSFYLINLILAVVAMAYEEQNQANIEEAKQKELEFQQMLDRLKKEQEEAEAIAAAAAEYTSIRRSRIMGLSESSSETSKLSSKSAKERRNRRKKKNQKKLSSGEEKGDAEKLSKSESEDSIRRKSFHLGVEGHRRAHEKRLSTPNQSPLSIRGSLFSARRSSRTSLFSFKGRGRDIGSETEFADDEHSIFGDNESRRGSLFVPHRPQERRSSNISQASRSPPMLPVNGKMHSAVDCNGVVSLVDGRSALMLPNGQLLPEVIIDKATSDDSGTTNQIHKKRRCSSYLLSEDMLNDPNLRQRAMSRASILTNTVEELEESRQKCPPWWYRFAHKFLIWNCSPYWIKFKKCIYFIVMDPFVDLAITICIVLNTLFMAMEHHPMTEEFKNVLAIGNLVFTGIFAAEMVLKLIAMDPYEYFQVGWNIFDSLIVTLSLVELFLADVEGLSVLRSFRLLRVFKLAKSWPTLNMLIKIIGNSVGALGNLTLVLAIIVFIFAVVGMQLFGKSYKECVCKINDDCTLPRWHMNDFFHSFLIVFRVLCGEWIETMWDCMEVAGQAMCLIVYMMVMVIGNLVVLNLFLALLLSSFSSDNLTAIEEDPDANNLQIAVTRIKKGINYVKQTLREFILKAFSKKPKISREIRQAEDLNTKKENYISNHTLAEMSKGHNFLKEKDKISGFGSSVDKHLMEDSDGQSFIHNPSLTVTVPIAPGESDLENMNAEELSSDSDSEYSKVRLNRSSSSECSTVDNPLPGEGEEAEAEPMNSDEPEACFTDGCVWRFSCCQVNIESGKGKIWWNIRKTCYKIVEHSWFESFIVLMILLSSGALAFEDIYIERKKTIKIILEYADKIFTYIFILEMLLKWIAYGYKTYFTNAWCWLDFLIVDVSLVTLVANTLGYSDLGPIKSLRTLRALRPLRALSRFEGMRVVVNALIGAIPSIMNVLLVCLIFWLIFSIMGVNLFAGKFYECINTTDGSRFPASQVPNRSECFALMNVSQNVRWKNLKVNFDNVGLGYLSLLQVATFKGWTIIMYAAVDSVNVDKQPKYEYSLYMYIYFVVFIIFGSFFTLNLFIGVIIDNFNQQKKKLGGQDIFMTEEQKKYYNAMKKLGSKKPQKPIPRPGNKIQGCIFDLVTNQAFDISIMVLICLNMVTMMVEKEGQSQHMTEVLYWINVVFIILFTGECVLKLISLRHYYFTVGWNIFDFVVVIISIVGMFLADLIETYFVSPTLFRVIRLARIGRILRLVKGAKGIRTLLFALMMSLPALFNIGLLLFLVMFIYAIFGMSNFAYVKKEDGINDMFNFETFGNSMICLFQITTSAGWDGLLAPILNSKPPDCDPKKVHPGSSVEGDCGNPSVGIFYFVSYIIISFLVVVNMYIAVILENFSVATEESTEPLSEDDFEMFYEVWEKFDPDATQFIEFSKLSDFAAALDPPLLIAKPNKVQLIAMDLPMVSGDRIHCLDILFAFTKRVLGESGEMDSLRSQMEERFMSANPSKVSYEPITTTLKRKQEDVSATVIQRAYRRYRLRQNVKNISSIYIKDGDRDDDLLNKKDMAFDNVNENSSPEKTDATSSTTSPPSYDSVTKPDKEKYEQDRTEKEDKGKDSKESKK

hNav1.5 = hNav1.5 (Homo sapiens, UniProt Q14524); experiment: cell-based
Chain of hNav1.5 (Q14524 whole entry, looked up): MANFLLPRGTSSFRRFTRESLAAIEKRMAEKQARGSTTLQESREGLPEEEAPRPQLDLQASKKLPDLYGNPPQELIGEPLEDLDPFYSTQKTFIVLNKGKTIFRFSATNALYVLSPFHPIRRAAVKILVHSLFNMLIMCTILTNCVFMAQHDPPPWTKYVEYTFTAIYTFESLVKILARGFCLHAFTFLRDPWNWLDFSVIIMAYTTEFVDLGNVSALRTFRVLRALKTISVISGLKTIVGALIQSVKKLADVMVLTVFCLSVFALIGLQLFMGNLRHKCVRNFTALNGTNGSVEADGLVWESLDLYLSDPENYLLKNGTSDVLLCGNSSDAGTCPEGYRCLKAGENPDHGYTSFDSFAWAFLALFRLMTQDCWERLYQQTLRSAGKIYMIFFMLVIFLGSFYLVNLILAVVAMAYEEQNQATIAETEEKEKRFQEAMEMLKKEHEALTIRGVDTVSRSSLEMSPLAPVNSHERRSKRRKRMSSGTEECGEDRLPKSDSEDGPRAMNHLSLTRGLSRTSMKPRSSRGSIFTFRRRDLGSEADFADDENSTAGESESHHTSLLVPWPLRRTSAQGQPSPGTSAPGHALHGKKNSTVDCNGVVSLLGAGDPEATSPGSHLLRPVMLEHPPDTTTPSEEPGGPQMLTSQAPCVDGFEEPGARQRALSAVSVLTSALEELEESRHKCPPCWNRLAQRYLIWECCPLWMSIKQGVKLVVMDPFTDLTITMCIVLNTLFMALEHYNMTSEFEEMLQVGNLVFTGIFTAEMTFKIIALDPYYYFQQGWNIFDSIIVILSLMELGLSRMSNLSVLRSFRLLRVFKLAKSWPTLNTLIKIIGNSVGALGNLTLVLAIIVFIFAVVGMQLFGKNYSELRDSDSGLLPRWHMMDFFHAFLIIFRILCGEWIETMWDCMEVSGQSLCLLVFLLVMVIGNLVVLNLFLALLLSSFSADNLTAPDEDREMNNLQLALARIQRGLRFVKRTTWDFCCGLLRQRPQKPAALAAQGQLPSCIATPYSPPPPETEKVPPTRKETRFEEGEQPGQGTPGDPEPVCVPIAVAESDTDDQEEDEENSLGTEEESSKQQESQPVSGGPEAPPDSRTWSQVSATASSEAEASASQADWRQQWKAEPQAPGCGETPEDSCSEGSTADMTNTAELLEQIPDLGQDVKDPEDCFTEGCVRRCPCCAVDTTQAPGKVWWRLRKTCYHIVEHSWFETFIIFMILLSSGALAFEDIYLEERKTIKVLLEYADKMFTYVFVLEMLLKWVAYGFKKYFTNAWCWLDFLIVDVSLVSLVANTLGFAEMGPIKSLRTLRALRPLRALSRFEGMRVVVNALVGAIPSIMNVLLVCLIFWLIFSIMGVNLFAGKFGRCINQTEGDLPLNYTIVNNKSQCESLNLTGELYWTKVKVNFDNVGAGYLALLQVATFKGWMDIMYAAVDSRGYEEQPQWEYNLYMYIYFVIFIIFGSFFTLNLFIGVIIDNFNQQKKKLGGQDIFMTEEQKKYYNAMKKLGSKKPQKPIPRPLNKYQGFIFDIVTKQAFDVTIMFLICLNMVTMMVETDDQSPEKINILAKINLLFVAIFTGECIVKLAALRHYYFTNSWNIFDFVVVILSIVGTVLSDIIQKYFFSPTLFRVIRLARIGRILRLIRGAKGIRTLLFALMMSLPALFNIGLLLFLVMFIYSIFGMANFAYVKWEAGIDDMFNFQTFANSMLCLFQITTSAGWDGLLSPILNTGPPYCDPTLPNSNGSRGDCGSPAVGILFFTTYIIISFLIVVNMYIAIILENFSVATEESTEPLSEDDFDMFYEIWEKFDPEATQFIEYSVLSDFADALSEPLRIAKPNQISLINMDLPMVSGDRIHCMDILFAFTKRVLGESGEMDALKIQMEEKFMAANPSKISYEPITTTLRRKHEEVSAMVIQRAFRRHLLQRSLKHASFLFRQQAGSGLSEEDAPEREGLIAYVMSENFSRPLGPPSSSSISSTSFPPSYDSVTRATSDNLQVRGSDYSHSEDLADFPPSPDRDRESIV

| Compound | pIC50 (hNav1.7; Nav1.7 Use IC50) | pIC50 (hNav1.5) | pIC50 (hNav1.7; read-out: Nav1.7 Use IC50) |
| --- | --- | --- | --- |
| CC[C@@H]1NC(=O)CNC(=O)[C@H](CC(C)C)NC(=O)[C@@H](NC(=O)[C@@H](N)CC(=O)O)CSSC[C@@H]2NC(=O)[C@@H]3CSSC[C@@H](C(=O)N[C@@H](CCCCN)C(=O)N[C@@H](Cc4ccc(O)cc4)C(=O)N[C@H](C(=O)N[C@@H](Cc4ccccc4)C(N)=O)C(C)C)NC(=O)[C@H](Cc4c[nH]c5ccccc45)NC(=O)[C@H](CCCCN)NC(=O)[C@H](Cc4c[nH]cn4)NC(=O)[C@H]([C@@H](C)O)NC(=O)[C@H](CCCNC(=N)N)NC(=O)[C@H](CO)NC(=O)[C@H](CSSC[C@H](NC(=O)[C@H](CCCCN)NC(=O)[C@H](CCCNC(=N)N)NC(=O)[C@H](CC(C)C)NC1=O)C(=O)N[C@@H]([C@@H](C)CC)C(=O)N1CCC[C@H]1C(=O)N[C@@H](CC(=O)O)C(=O)N[C@@H](CC(N)=O)C(=O)N[C@@H](CC(=O)O)C(=O)N[C@@H](CCCCN)C(=O)N3)NC(=O)[C@H](C(C)C)NC(=O)[C@H](CC(C)C)NC(=O)[C@H](CC(N)=O)NC(=O)[C@@H]1CCCN1C(=O)[C@H](CCCNC(=N)N)NC2=O [[2-Abu5;Leu6]GpTx-1(1-34)] | 7.66 | < 5.00 |  |
| CC[C@H](C)[C@@H]1NC(=O)[C@@H]2CSSC[C@@H]3NC(=O)[C@H](C(C)C)NC(=O)[C@H](CC(C)C)NC(=O)[C@H](CC(N)=O)NC(=O)[C@@H]4CCCN4C(=O)[C@H](CCCNC(=N)N)NC(=O)[C@H](CSSC[C@H](NC(=O)[C@@H](N)CC(=O)O)C(=O)N[C@@H](CC(C)C)C(=O)NCC(=O)N[C@@H](C)C(=O)N[C@@H](CCSC)C(=O)N[C@@H](CCCNC(=N)N)C(=O)N[C@@H](CCCCN)C(=O)N2)NC(=O)[C@H](CSSC[C@@H](C(=O)N[C@@H](CCCCN)C(=O)N[C@@H](Cc2ccc(O)cc2)C(=O)N[C@H](C(=O)N[C@@H](Cc2ccccc2)C(N)=O)C(C)C)NC(=O)[C@H](Cc2c[nH]c4ccccc24)NC(=O)[C@H](CCCNC(N)=O)NC(=O)[C@H](Cc2c[nH]cn2)NC(=O)[C@H]([C@@H](C)O)NC(=O)[C@H](CCCNC(=N)N)NC(=O)[C@H](CO)NC3=O)NC(=O)[C@H](CCCCN)NC(=O)[C@H](CC(=O)O)NC(=O)[C@H](CC(N)=O)NC(=O)[C@H](CC(=O)O)NC(=O)[C@@H]2CCCN2C1=O [[Ala5;Cit28]GpTx-1(1-34)] (H-DCLGAMRKCIPDNDKCCRPNLVCSRTH[Cit]WCKYVF-NH2; disulfide 2-17, 9-23, 16-30) | 7.52 | < 5.00 |  |
| CC[C@H](C)[C@@H]1NC(=O)[C@@H]2CSSC[C@@H]3NC(=O)[C@H](C(C)C)NC(=O)[C@H](CC(C)C)NC(=O)[C@H](CC(N)=O)NC(=O)[C@@H]4CCCN4C(=O)[C@H](CCCNC(=N)N)NC(=O)[C@H](CSSC[C@H](NC(=O)[C@@H](N)CC(=O)O)C(=O)N[C@@H](CC(C)C)C(=O)NCC(=O)N[C@@H](Cc4ccccc4)C(=O)N[C@@H](CCSC)C(=O)N[C@@H](CCCNC(=N)N)C(=O)N[C@@H](CCCCN)C(=O)N2)NC(=O)[C@H](CSSC[C@@H](C(=O)N[C@@H](CCCCN)C(=O)N[C@@H](Cc2ccc(O)cc2)C(=O)N[C@H](C(=O)N[C@@H](Cc2ccccc2)C(N)=O)C(C)C)NC(=O)[C@H](Cc2c[nH]c4ccccc24)NC(=O)[C@H](CCCCN)NC(=O)[C@H](Cc2c[nH]cn2)NC(=O)[C@H]([C@@H](C)O)NC(=O)[C@H](CCCNC(N)=O)NC(=O)[C@H](CO)NC3=O)NC(=O)[C@H](CCCCN)NC(=O)[C@H](CC(=O)O)NC(=O)[C@H](CC(N)=O)NC(=O)[C@H](CC(=O)O)NC(=O)[C@@H]2CCCN2C1=O [[Cit25]GpTx-1(1-34)] | 8.40 | < 5.00 |  |
| CC[C@H](C)[C@@H]1NC(=O)[C@@H]2CSSC[C@@H]3NC(=O)[C@H](C(C)C)NC(=O)[C@H](CC(C)C)NC(=O)[C@H](CC(N)=O)NC(=O)[C@@H]4CCCN4C(=O)[C@H](CCCNC(=N)N)NC(=O)[C@H](CSSC[C@H](NC(=O)[C@@H](N)CC(=O)O)C(=O)N[C@@H](CC(C)C)C(=O)NCC(=O)N[C@@H](C)C(=O)N[C@@H](Cc4ccccc4)C(=O)N[C@@H](CCCNC(=N)N)C(=O)N[C@@H](CCCCN)C(=O)N2)NC(=O)[C@H](CSSC[C@@H](C(=O)N[C@@H](CCCCN)C(=O)N[C@@H](Cc2ccc(O)cc2)C(=O)N[C@H](C(=O)N[C@@H](Cc2ccccc2)C(N)=O)C(C)C)NC(=O)[C@H](Cc2c[nH]c4ccccc24)NC(=O)[C@H](CCCNC(=N)N)NC(=O)[C@H](Cc2c[nH]cn2)NC(=O)[C@H](CC(C)C)NC(=O)[C@H](CCCNC(=N)N)NC(=O)[C@H](CO)NC3=O)NC(=O)[C@H](CCCCN)NC(=O)[C@H](CC(=O)O)NC(=O)[C@H](Cc2cn(CCOCCOCCOCCOCCOCCOCCOCCOCCOCCOCCOCCNC(=O)CSCCO)nn2)NC(=O)[C@H](CC(=O)O)NC(=O)[C@@H]2CCCN2C1=O | 7.46 | < 5.00 |  |
| CC[C@H](C)[C@@H]1NC(=O)[C@@H]2CSSC[C@@H]3NC(=O)[C@H](C(C)C)NC(=O)[C@H](CC(C)C)NC(=O)[C@H](CC(N)=O)NC(=O)[C@@H]4CCCN4C(=O)[C@H](CCCNC(=N)N)NC(=O)[C@H](CSSC[C@H](NC(=O)[C@@H](N)CC(=O)O)C(=O)N[C@@H](CC(C)C)C(=O)NCC(=O)N[C@@H](C)C(=O)N[C@@H](CCSC)C(=O)N[C@@H](CCCNC(=N)N)C(=O)N[C@@H](CCCCN)C(=O)N2)NC(=O)[C@H](CSSC[C@@H](C(=O)N[C@@H](CCCCN)C(=O)N[C@@H](Cc2ccc(O)cc2)C(=O)N[C@H](C(=O)N[C@@H](Cc2ccccc2)C(N)=O)C(C)C)NC(=O)[C@H](Cc2c[nH]c4ccccc24)NC(=O)[C@H](CO)NC(=O)[C@H](Cc2c[nH]cn2)NC(=O)[C@H]([C@@H](C)O)NC(=O)[C@H](CCCNC(=N)N)NC(=O)[C@H](CO)NC3=O)NC(=O)[C@H](CCCCN)NC(=O)[C@H](CC(=O)O)NC(=O)[C@H](CC(N)=O)NC(=O)[C@H](CC(=O)O)NC(=O)[C@@H]2CCCN2C1=O [[Ala5;Ser28]GpTx-1(1-34)] (H-DCLGAMRKCIPDNDKCCRPNLVCSRTHSWCKYVF-NH2; disulfide 2-17, 9-23, 16-30) | 7.35 | < 5.00 |  |
| CC[C@H](C)[C@@H]1NC(=O)[C@@H]2CSSC[C@@H]3NC(=O)[C@H](C(C)C)NC(=O)[C@H](CC(C)C)NC(=O)[C@H](CC(N)=O)NC(=O)[C@@H]4CCCN4C(=O)[C@H](CCCNC(=NC)NC)NC(=O)[C@H](CSSC[C@H](NC(=O)[C@@H](N)CC(=O)O)C(=O)N[C@@H](CC(C)C)C(=O)NCC(=O)N[C@@H](Cc4ccccc4)C(=O)N[C@@H](CCSC)C(=O)N[C@@H](CCCNC(=N)N)C(=O)N[C@@H](CCCCN)C(=O)N2)NC(=O)[C@H](CSSC[C@@H](C(=O)N[C@@H](CCCCN)C(=O)N[C@@H](Cc2ccc(O)cc2)C(=O)N[C@H](C(=O)N[C@@H](Cc2ccccc2)C(N)=O)C(C)C)NC(=O)[C@H](Cc2c[nH]c4ccccc24)NC(=O)[C@H](CCCCN)NC(=O)[C@H](Cc2c[nH]cn2)NC(=O)[C@H]([C@@H](C)O)NC(=O)[C@H](CCCNC(=N)N)NC(=O)[C@H](CO)NC3=O)NC(=O)[C@H](CCCCN)NC(=O)[C@H](CC(=O)O)NC(=O)[C@H](CC(N)=O)NC(=O)[C@H](CC(=O)O)NC(=O)[C@@H]2CCCN2C1=O [[SDMA18]GpTx-1(1-34)] |  | 5.00 | 8.22 |
| CCC[C@@H]1NC(=O)CNC(=O)[C@H](CC(C)C)NC(=O)[C@@H](NC(=O)[C@@H](N)CC(=O)O)CSSC[C@@H]2NC(=O)[C@@H]3CSSC[C@@H](C(=O)N[C@@H](CCCCN)C(=O)N[C@@H](Cc4ccc(O)cc4)C(=O)N[C@H](C(=O)N[C@@H](Cc4ccccc4)C(N)=O)C(C)C)NC(=O)[C@H](Cc4c[nH]c5ccccc45)NC(=O)[C@H](CCCCN)NC(=O)[C@H](Cc4c[nH]cn4)NC(=O)[C@H]([C@@H](C)O)NC(=O)[C@H](CCCNC(=N)N)NC(=O)[C@H](CO)NC(=O)[C@H](CSSC[C@H](NC(=O)[C@H](CCCCN)NC(=O)[C@H](CCCNC(=N)N)NC(=O)[C@H](CC(C)C)NC1=O)C(=O)N[C@@H]([C@@H](C)CC)C(=O)N1CCC[C@H]1C(=O)N[C@@H](CC(=O)O)C(=O)N[C@@H](CC(N)=O)C(=O)N[C@@H](CC(=O)O)C(=O)N[C@@H](CCCCN)C(=O)N3)NC(=O)[C@H](C(C)C)NC(=O)[C@H](CC(C)C)NC(=O)[C@H](CC(N)=O)NC(=O)[C@@H]1CCCN1C(=O)[C@H](CCCNC(=N)N)NC2=O [[Nva5;Leu6]GpTx-1(1-34)] | 7.08 | < 5.00 |  |
| CCC[C@@H]1NC(=O)CNC(=O)[C@H](CC(C)C)NC(=O)[C@@H](NC(=O)[C@@H](N)CC(=O)O)CSSC[C@@H]2NC(=O)[C@@H]3CSSC[C@@H](C(=O)N[C@@H](CCCCN)C(=O)N[C@@H](Cc4ccc(O)cc4)C(=O)N[C@H](C(=O)N[C@@H](Cc4ccccc4)C(N)=O)C(C)C)NC(=O)[C@H](Cc4c[nH]c5ccccc45)NC(=O)[C@H](CCC(=O)O)NC(=O)[C@H](Cc4c[nH]cn4)NC(=O)[C@H]([C@@H](C)O)NC(=O)[C@H](CCCNC(=N)N)NC(=O)[C@H](CO)NC(=O)[C@H](CSSC[C@H](NC(=O)[C@H](CCCCN)NC(=O)[C@H](CCCNC(=N)N)NC(=O)[C@H](CCSC)NC1=O)C(=O)N[C@@H]([C@@H](C)CC)C(=O)N1CCC[C@H]1C(=O)N[C@@H](CC(=O)O)C(=O)N[C@@H](CC(N)=O)C(=O)N[C@@H](CC(=O)O)C(=O)N[C@@H](CCCCN)C(=O)N3)NC(=O)[C@H](C(C)C)NC(=O)[C@H](CC(C)C)NC(=O)[C@H](CC(N)=O)NC(=O)[C@@H]1CCCN1C(=O)[C@H](CCCNC(=N)N)NC2=O [[Nva5;Glu28]GpTx-1(1-34)] (H-DCLG[Nva]MRKCIPDNDKCCRPNLVCSRTHEWCKYVF-NH2; disulfide 2-17, 9-23, 16-30) | 7.25 | < 5.00 |  |
| CC[C@H](C)[C@@H]1NC(=O)[C@@H]2CSSC[C@@H]3NC(=O)[C@H](C(C)C)NC(=O)[C@H](CC(C)C)NC(=O)[C@H](CC(N)=O)NC(=O)[C@@H]4CCCN4C(=O)[C@H](CCCNC(=N)N)NC(=O)[C@H](CSSC[C@H](NC(=O)[C@@H](N)CC(=O)O)C(=O)N[C@@H](CC(C)C)C(=O)NCC(=O)N[C@@H](C(C)C)C(=O)N[C@@H](CCSC)C(=O)N[C@@H](CCCNC(=N)N)C(=O)N[C@@H](CCCCN)C(=O)N2)NC(=O)[C@H](CSSC[C@@H](C(=O)N[C@@H](CCCCN)C(=O)N[C@@H](Cc2ccc(O)cc2)C(=O)N[C@H](C(=O)N[C@@H](Cc2ccccc2)C(N)=O)C(C)C)NC(=O)[C@H](Cc2c[nH]c4ccccc24)NC(=O)[C@H](CCCCN)NC(=O)[C@H](Cc2c[nH]cn2)NC(=O)[C@H]([C@@H](C)O)NC(=O)[C@H](CCCNC(N)=O)NC(=O)[C@H](CO)NC3=O)NC(=O)[C@H](CCCCN)NC(=O)[C@H](CC(=O)O)NC(=O)[C@H](CC(N)=O)NC(=O)[C@H](CC(=O)O)NC(=O)[C@@H]2CCCN2C1=O [[Val5;Cit25]GpTx-1(1-34)] (H-DCLGVMRKCIPDNDKCCRPNLVCS[Cit]THKWCKYVF-NH2; disulfide 2-17, 9-23, 16-30) | 7.55 | < 5.00 |  |
